The source of these data is patent US8956999B2, “Herbicides” (Syngenta Limited, priority 2007, dated 2015).

Common to all, as to format: in vivo
The test system of experiment [1] is Alopecurus myosuroides (ALOMY). Nature of the experiment: Example B pre-emergence herbicidal test, glasshouse. To be noted: 312 h, evaluated after 13 days, 100=total damage to plant, 0=no damage to plant; for pest or weed control at 1000 g/ha: rate 1000 g/ha; for pest or weed control at 250 g/ha: rate 250 g/ha. The essentials: (§1)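 Seeds sown in standard soil in pots, sprayed 1 day after sowing (pre-emergence) or after 8 days growth (post-emergence) with active ingredient in acetone/water (50:50) plus 0.5% Tween 20, diluted in water. Glasshouse 24/16 °C day/night, 14 h light, 65% humidity; damage scored after 13 days (0 = none, 100 = total).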

The subject of experiment [2] is Amaranthus retoflexus (AMARE). Described as above. To be noted: Amaranthus retroflexus, 312 h, evaluated after 13 days, 100=total damage to plant, 0=no damage to plant; for pest or weed control at 1000 g/ha: rate 1000 g/ha; for pest or weed control at 250 g/ha: rate 250 g/ha. The essentials:
as §1

In experiment [3] the test system is Avena fatua (AVEFA). Described as above. To be noted: 312 h, evaluated after 13 days, 100=total damage to plant, 0=no damage to plant; for pest or weed control at 1000 g/ha: rate 1000 g/ha; for pest or weed control at 250 g/ha: rate 250 g/ha. The essentials: as §1
The test system of experiment [4] is Echinochloa crus-galli (ECHCG). The description is as above. To be noted: evaluated after 13 days, 100=total damage to plant, 0=no damage to plant; for Pre-Emergence Activity ECHCG: rate 1000 g/ha; for pest or weed control at 250 g/ha: Echinochloa crus-galli, 312 h, rate 250 g/ha, read-out: Pre-Emergence Activity ECHGG. The essentials:
as §1

The test system of experiment [5] is Setaria faberi (SETFA). Described as above. To be noted: evaluated after 13 days, 100=total damage to plant, 0=no damage to plant; for Pre-Emergence Activity SETFA: rate 1000 g/ha; for pest or weed control at 250 g/ha: Setaria faberi, 312 h, rate 250 g/ha, read-out: Pre-Emergence Activity SEFTA. The essentials:
as §1

Experiment [6] has as its system Solanum nigrum (SOLNI). Described as above. To be noted: rate 1000 g/ha, evaluated after 13 days, 100=total damage to plant, 0=no damage to plant. The essentials: as §1
Experiment [7] deals with Alopecurus myosuroides (ALOMY). Nature of the experiment: Example B post-emergence herbicidal test, glasshouse. To be noted: 312 h, evaluated after 13 days, read-out: Post-Emergence Activity ALOMY (100=total damage to plant; 0=no damage to plant); for pest or weed control at 1000 g/ha: rate 1000 g/ha; for pest or weed control at 250 g/ha: rate 250 g/ha. The essentials:
as §1

Experiment [8] has as its system Amaranthus retoflexus (AMARE). Described as above. To be noted: Amaranthus retroflexus, 312 h, evaluated after 13 days, read-out: Post-Emergence Activity AMARE (100=total damage to plant; 0=no damage to plant); for pest or weed control at 1000 g/ha: rate 1000 g/ha; for pest or weed control at 250 g/ha: rate 250 g/ha. The essentials:
as §1

For experiment [9], the system named is Avena fatua (AVEFA). Described as above. To be noted: 312 h, evaluated after 13 days, read-out: Post-Emergence Activity AVEFA (100=total damage to plant; 0=no damage to plant); for pest or weed control at 1000 g/ha: rate 1000 g/ha; for pest or weed control at 250 g/ha: rate 250 g/ha. The essentials: as §1
Experiment [10] relates to Echinochloa crus-galli (ECHCG). The experiment is described as above. To be noted: 312 h, evaluated after 13 days; for pest or weed control at 1000 g/ha: rate 1000 g/ha, read-out: Post-Emergence Activity ECHCG (100=total damage to plant; 0=no damage to plant); for pest or weed control at 250 g/ha: rate 250 g/ha, read-out: Post-Emergence Activity ECHGG (100=total damage to plant; 0=no damage to plant). The essentials: as §1

The subject of experiment [11] is Setaria faberi (SETFA). The description is as above. To be noted: 312 h, evaluated after 13 days; for pest or weed control at 1000 g/ha: rate 1000 g/ha, read-out: Post-Emergence Activity SETFA (100=total damage to plant; 0=no damage to plant); for pest or weed control at 250 g/ha: rate 250 g/ha, read-out: Post-Emergence Activity SEFTA (100=total damage to plant; 0=no damage to plant). The essentials:
as §1

Experiment [12] concerns Solanum nigrum (SOLNI). Described as above. To be noted: 312 h, rate 1000 g/ha, evaluated after 13 days, read-out: Post-Emergence Activity SOLNI (100=total damage to plant; 0=no damage to plant). The essentials: as §1

SMILES strings stand for the structures.

Take `Cc1ocnc1C1C(=O)C(C)(C)C(=O)C(C)(C)C1=O` [Compound T2]: the pest or weed control at 1000 g/ha in experiment [1] worked out at 0%; in experiment [2], 50%; with Avena fatua (AVEFA) [3] it was 0%; in [7] it was 0%; in experiment [8] it was 0%; in the experiment with Avena fatua (AVEFA) [9] it was 0%. Also, the pest or weed control at 1000 g/ha in experiment [10] worked out at 0%; in the experiment on Setaria faberi (SETFA) [11], 0%; with Solanum nigrum (SOLNI) [12], 40%. Besides, in [4], the “Pre-Emergence Activity ECHCG” value is listed as 0. Also, the “Pre-Emergence Activity SETFA” value in the experiment with Setaria faberi (SETFA) [5] came to 0. Besides, the “Pre-Emergence Activity SOLNI” value in the experiment with Solanum nigrum (SOLNI) [6] is 60.
`Cc1sc(-c2ccc(F)cc2)nc1C1C(=O)C(C)(C)C(=O)C(C)(C)C1=O` [Compound T8]: the pest or weed control at 1000 g/ha in [1] came to 30%; in experiment [2] it was 0%; in the experiment on Avena fatua (AVEFA) [3], 20%; in [7], 40%; in [8], 0%; in the experiment with Avena fatua (AVEFA) [9] it was 0%. Moreover, the pest or weed control at 1000 g/ha in [10] is 70%; in the experiment on Setaria faberi (SETFA) [11], 80%; in the experiment with Solanum nigrum (SOLNI) [12], 20%. Moreover, the “Pre-Emergence Activity ECHCG” value in experiment [4] amounted to 0. Further, the “Pre-Emergence Activity SETFA” value in the experiment with Setaria faberi (SETFA) [5] is listed as 0. In addition, the “Pre-Emergence Activity SOLNI” value in the experiment on Solanum nigrum (SOLNI) [6] is reported as 0.
In the case of `Cc1sc(-c2ccc(Cl)c(C(F)(F)F)c2)nc1C1C(=O)C(C)(C)OC(C)(C)C1=O` [Compound T15], the pest or weed control at 1000 g/ha is 40% in experiment [7]; 0% in experiment [8]; 0% in the experiment on Avena fatua (AVEFA) [9]; 70% in [10]; 0% with Setaria faberi (SETFA) [11]; 0% with Solanum nigrum (SOLNI) [12].
Take `Cc1sc(OCc2cnc(Br)s2)nc1C1C(=O)C(C)(C)OC(C)(C)C1=O` [Compound T14]: the pest or weed control at 250 g/ha is 0% in experiment [1]; 0% in [2]; 0% in the experiment with Avena fatua (AVEFA) [3]; 0% in experiment [4]; 50% in the experiment on Setaria faberi (SETFA) [5]; 40% in experiment [7]. In addition, the pest or weed control at 250 g/ha in [8] worked out at 0%; in the experiment with Avena fatua (AVEFA) [9] it was 0%; in experiment [10], 70%; with Setaria faberi (SETFA) [11], 90%. The values for the pest or weed control at 1000 g/ha (in experiment [1]; in experiment [2]; in the experiment on Avena fatua (AVEFA) [3]) were 40%, 0% and 0%, respectively. The “Pre-Emergence Activity ECHCG” value in [4] was 0. In addition, the “Pre-Emergence Activity SETFA” value with Setaria faberi (SETFA) [5] is recorded as 0. Moreover, the “Pre-Emergence Activity SOLNI” value in the experiment with Solanum nigrum (SOLNI) [6] amounted to 0.
For the compound `Cc1sc(COc2ccc(Cl)cc2)nc1C1C(=O)C(C)(C)OC(C)(C)C1=O` [Compound T59], the pest or weed control at 250 g/ha in experiment [1] was found to be 0%; in experiment [2], 0%; in the experiment on Avena fatua (AVEFA) [3], 0%; in experiment [4] it was 0%; with Setaria faberi (SETFA) [5], 0%; in experiment [7], 30%. Besides, the pest or weed control at 250 g/ha in [8] was determined as 0%; with Avena fatua (AVEFA) [9], 0%; in [10], 70%; with Setaria faberi (SETFA) [11], 30%.
For `Cc1sc(-c2ccc(Cl)c(Cl)c2)nc1C1C(=O)C(C)(C)C(=O)C(C)(C)C1=O` [Compound T43], the pest or weed control at 250 g/ha (in experiment [1]; in experiment [2]; in the experiment with Avena fatua (AVEFA) [3]; in experiment [4]; with Setaria faberi (SETFA) [5]; in [7]) was 0% each time. The pest or weed control at 250 g/ha in [8] came to 0%; in the experiment on Avena fatua (AVEFA) [9], 0%; in experiment [10], 30%; with Setaria faberi (SETFA) [11], 0%.
As to `Cc1sc(-c2ccc(Cl)cc2)nc1C1C(=O)C(C)(C)C(=O)C(C)(C)C1=O` [Compound T1], the pest or weed control at 1000 g/ha in experiment [7] stood at 90%; in experiment [8] it was 0%; in the experiment with Avena fatua (AVEFA) [9], 80%; in experiment [10] it was 90%; with Setaria faberi (SETFA) [11], 90%; with Solanum nigrum (SOLNI) [12], 0%.
For `Cc1cc(-c2nc(C3C(=O)C(C)(C)C(=O)C(C)(C)C3=O)c(C)s2)ccc1Cl` [Compound T42], the pest or weed control at 250 g/ha in [1] stood at 0%; in experiment [2], 40%; in the experiment with Avena fatua (AVEFA) [3], 0%; in experiment [4], 40%; in the experiment with Setaria faberi (SETFA) [5], 0%; in experiment [7], 0%. For the same compound, the pest or weed control at 250 g/ha came to 0% in experiment [8], 0% in the experiment with Avena fatua (AVEFA) [9], 20% in experiment [10] and 0% with Setaria faberi (SETFA) [11].
Regarding `Cc1sc(-c2ccc(Br)cc2F)nc1C1C(=O)C(C)(C)OC(C)(C)C1=O` [Compound T52], the pest or weed control at 250 g/ha was found to be 60% in [1]; 0% in [2]; 0% with Avena fatua (AVEFA) [3]; 80% in experiment [4]; 100% in the experiment with Setaria faberi (SETFA) [5]; 100% in [7]. Moreover, the pest or weed control at 250 g/ha in experiment [8] is 0%; with Avena fatua (AVEFA) [9] it was 100%; in experiment [10], 100%; with Setaria faberi (SETFA) [11] it was 100%.
Turning to `CC(=O)OC1=C(c2nc(-c3ccc(Br)cc3C)sc2C)C(=O)C(C)(C)OC1(C)C` [Compound P6], the pest or weed control at 250 g/ha is 90% in experiment [1]; 0% in experiment [2]; 80% in the experiment with Avena fatua (AVEFA) [3]; 70% in experiment [4]; 100% with Setaria faberi (SETFA) [5]; 100% in experiment [7]. For the same compound, the pest or weed control at 250 g/ha in experiment [8] turned out to be 0%; with Avena fatua (AVEFA) [9], 90%; in experiment [10], 100%; with Setaria faberi (SETFA) [11], 100%.
On to `Cc1sc(-c2ccc(Br)cn2)nc1C1=C(OC(=O)C(C)(C)C)C(C)(C)OC(C)(C)C1=O` [Compound P5], for which the pest or weed control at 250 g/ha (in experiment [1]; in experiment [2]; in the experiment on Avena fatua (AVEFA) [3]; in [4]; in the experiment with Setaria faberi (SETFA) [5]; in experiment [7]) was 0% throughout. Moreover, the pest or weed control at 250 g/ha (in experiment [8]; in the experiment with Avena fatua (AVEFA) [9]; in experiment [10]; with Setaria faberi (SETFA) [11]) was 0% each time.
Regarding `Cc1sc(-c2ccc(OC(F)F)cc2)nc1C1C(=O)C(C)(C)OC(C)(C)C1=O` [Compound T60], the pest or weed control at 250 g/ha in experiment [1] stood at 40%; in experiment [2], 0%; in the experiment on Avena fatua (AVEFA) [3], 0%; in [4] it was 20%; in the experiment with Setaria faberi (SETFA) [5], 70%; in experiment [7], 50%. Besides, the pest or weed control at 250 g/ha in experiment [8] worked out at 0%; in the experiment on Avena fatua (AVEFA) [9], 40%; in experiment [10] it was 90%; with Setaria faberi (SETFA) [11], 90%.
